Assay results reported in patent publication US20230095926A1, “PARASITE CONTROL IN RUMINANTS” (Intervet Inc., priority 2019, published 2023).

Test system: sheep body lice (Bovicola ovis)
Experiment: Persistency determination, lice challenge of treated lice free Merino sheep with 5 months wool growth
Assay type: in vivo
Settings: 3.0 mg/kg s.c., Day 21-28 challenge, counts 7, 14, 21, 42 and 84 days post-challenge
Method: In this study the persistent efficacy of fluralaner when administered once subcutaneously at doses of 1.0, 2.0 and 3.0 mg/kg body weight against sheep body lice (Bovicola ovis) infestation on Merino sheep with 5 months wool growth was evaluated.
Fluralaner was administered to sheep in three groups each at 1.0, 2.0 and 3.0 mg fluralaner/kg bodyweight. The dose was administered subcutaneously. Three groups were left untreated as negative control groups.
From Day 21-28, 49-56 and Day 77-84 post-treatment one group of untreated negative control sheep and one group of sheep treated at 1.0, 2.0 and 3.0 mg/kg were challenged with lice by close confinement with lice infested sheep and manual transfer of lice. Following the challenges lice counts were conducted 7, 14, 21, 42 and 84 days±1-day post-challenge (not all counts conducted for all challenges).

`Cc1cc(C2=NOC(c3cc(Cl)cc(Cl)c3)(C(F)(F)F)C2)ccc1C(=O)NCC(=O)NCC(F)(F)F` (stereo not shown) [Fluralaner, 4-[5-(3,5-dichlorophenyl)-5-trifluoromethyl-4,5-dihydroisoxazol-3-yl]-2-methyl-N-[(2,2,2-trifluoro-ethylcarbamoyl)-methyl]-benzamide] was tested, and the “lice or viable lice eggs found after challenge” value was “No lice or viable lice eggs were found”.
